Measurements reported in ChEMBL document CHEMBL1275577, “Study of the in vitro activities of rifaximin and comparator agents against 536 anaerobic intestinal bacteria from the perspective of potential utility in pathology involving bowel flora” (Antimicrob Agents Chemother, 2009).
Values after ≈ are worked out from the molar mass of the structure shown.

Experiments:
Format in all cases: functional
[1] = test system: Parabacteroides distasonis; assay: Antimicrobial activity against Parabacteroides distasonis by Wadsworth agar dilution method in presence of beta-lactamase inhibitor Sulbactam
Parabacteroides merdae = assay: Antimicrobial activity against Parabacteroides merdae by Wadsworth agar dilution method in presence of beta-lactamase inhibitor Sulbactam
Bacteroides stercoris = assay: Antimicrobial activity against Bacteroides stercoris by Wadsworth agar dilution method in presence of beta-lactamase inhibitor Sulbactam
Desulfovibrio vulgaris = assay: Antimicrobial activity against Desulfovibrio vulgaris by Wadsworth agar dilution method in presence of beta-lactamase inhibitor Sulbactam; settings: Nitratidesulfovibrio vulgaris
Fusobacterium mortiferum = assay: Antimicrobial activity against Fusobacterium mortiferum by Wadsworth agar dilution method
[2] = test system: Fusobacterium necrophorum; assay: Antimicrobial activity against Fusobacterium necrophorum by Wadsworth agar dilution method in presence of beta-lactamase inhibitor Sulbactam
Prevotella intermedia = assay: Antimicrobial activity against Prevotella intermedia by Wadsworth agar dilution method in presence of beta-lactamase inhibitor Sulbactam
[3] = test system: Enterocloster clostridioformis; assay: Antimicrobial activity against Clostridium clostridioforme by Wadsworth agar dilution method in presence of beta-lactamase inhibitor Sulbactam
Flavonifractor plautii = assay: Antimicrobial activity against Clostridium orbiscindens by Wadsworth agar dilution method in presence of beta-lactamase inhibitor Sulbactam
Clostridium bartlettii = assay: Antimicrobial activity against Clostridium bartlettii by Wadsworth agar dilution method in presence of beta-lactamase inhibitor Sulbactam; settings: Intestinibacter bartlettii
Clostridium fallax = assay: Antimicrobial activity against Clostridium fallax by Wadsworth agar dilution method in presence of beta-lactamase inhibitor Sulbactam
[4] = test system: Clostridium lactatifermentans; assay: Antimicrobial activity against Clostridium lactatifermentans by Wadsworth agar dilution method in presence of beta-lactamase inhibitor Sulbactam; settings: Anaerotignum lactatifermentans
Thomasclavelia ramosa = assay: Antimicrobial activity against Clostridium ramosum by Wadsworth agar dilution method in presence of beta-lactamase inhibitor Sulbactam
Clostridium scindens = assay: Antimicrobial activity against Clostridium scindens by Wadsworth agar dilution method in presence of beta-lactamase inhibitor Sulbactam
[5] = test system: Paeniclostridium sordellii; assay: Antimicrobial activity against Clostridium sordellii by Wadsworth agar dilution method in presence of beta-lactamase inhibitor Sulbactam; settings: Paraclostridium sordellii
Clostridium sporogenes = assay: Antimicrobial activity against Clostridium sporogenes by Wadsworth agar dilution method in presence of beta-lactamase inhibitor Sulbactam
Clostridium subterminale = assay: Antimicrobial activity against Clostridium subterminale by Wadsworth agar dilution method in presence of beta-lactamase inhibitor Sulbactam
Actinomyces viscosus = assay: Antimicrobial activity against Actinomyces viscosus by Wadsworth agar dilution method in presence of beta-lactamase inhibitor Sulbactam
Atopobium minutum = assay: Antimicrobial activity against Atopobium minutum by Wadsworth agar dilution method in presence of beta-lactamase inhibitor Sulbactam
[6] = test system: Bifidobacterium adolescentis; assay: Antimicrobial activity against Bifidobacterium adolescentis by Wadsworth agar dilution method in presence of beta-lactamase inhibitor Sulbactam
Bifidobacterium breve = assay: Antimicrobial activity against Bifidobacterium breve by Wadsworth agar dilution method in presence of beta-lactamase inhibitor Sulbactam
Eggerthella lenta = assay: Antimicrobial activity against Eggerthella lenta by Wadsworth agar dilution method in presence of beta-lactamase inhibitor Sulbactam
Eubacterium cylindroides = assay: Antimicrobial activity against Eubacterium cylindroides by Wadsworth agar dilution method in presence of beta-lactamase inhibitor Sulbactam; settings: Faecalitalea cylindroides
Eubacterium limosum = assay: Antimicrobial activity against Eubacterium limosum by Wadsworth agar dilution method in presence of beta-lactamase inhibitor Sulbactam
[7] = test system: Lactiplantibacillus plantarum; assay: Antimicrobial activity against Lactobacillus plantarum by Wadsworth agar dilution method in presence of beta-lactamase inhibitor Sulbactam
Parvimonas micra = assay: Antimicrobial activity against Peptostreptococcus micros by Wadsworth agar dilution method in presence of beta-lactamase inhibitor Sulbactam

CC1(C)S[C@@H]2[C@H](NC(=O)[C@H](N)c3ccccc3)C(=O)N2[C@H]1C(=O)O [AMPICILLIN]
MIC50 [1]: 16 µg/mL | MIC90 [1]: 32 µg/mL | MIC50 (Parabacteroides merdae): 16 µg/mL | MIC90 (Parabacteroides merdae): 32 µg/mL | MIC50 (Bacteroides stercoris): 2 µg/mL | MIC90 (Bacteroides stercoris): 16 µg/mL | MIC50 (Desulfovibrio vulgaris): 4 µg/mL | MIC90 (Desulfovibrio vulgaris): 32 µg/mL | MIC50 (Fusobacterium mortiferum): 1 µg/mL (≈ 2.86 µM) | MIC90 (Fusobacterium mortiferum): 4 µg/mL (≈ 11.4 µM) | MIC50 [2]: 1 µg/mL | MIC90 [2]: 4 µg/mL | MIC50 (Prevotella intermedia): 0.5 µg/mL | MIC90 (Prevotella intermedia): 4 µg/mL | MIC [3]: 1 µg/mL | MIC50 [3]: 1 µg/mL | MIC90 [3]: 16 µg/mL | MIC (Flavonifractor plautii): 2 µg/mL | MIC50 (Flavonifractor plautii): 2 µg/mL | MIC90 (Flavonifractor plautii): 4 µg/mL | MIC (Clostridium bartlettii): 0.25 µg/mL | MIC50 (Clostridium bartlettii): 0.25 µg/mL | MIC90 (Clostridium bartlettii): 1 µg/mL | MIC (Clostridium fallax): 0.25 µg/mL | MIC50 (Clostridium fallax): 0.25 µg/mL | MIC90 (Clostridium fallax): 1 µg/mL | MIC [4]: 0.25 µg/mL | MIC50 [4]: 0.25 µg/mL | MIC90 [4]: 1 µg/mL | MIC (Thomasclavelia ramosa): 0.25 µg/mL | MIC50 (Thomasclavelia ramosa): 0.25 µg/mL | MIC90 (Thomasclavelia ramosa): 1 µg/mL | MIC (Clostridium scindens): 0.25 µg/mL | MIC50 (Clostridium scindens): 0.25 µg/mL | MIC90 (Clostridium scindens): 1 µg/mL | MIC [5]: 0.25 µg/mL | MIC50 [5]: 0.25 µg/mL | MIC90 [5]: 1 µg/mL | MIC (Clostridium sporogenes): 0.25 µg/mL | MIC50 (Clostridium sporogenes): 0.25 µg/mL | MIC90 (Clostridium sporogenes): 1 µg/mL | MIC (Clostridium subterminale): 0.25 µg/mL | MIC50 (Clostridium subterminale): 0.25 µg/mL | MIC90 (Clostridium subterminale): 1 µg/mL | MIC (Actinomyces viscosus): 0.25 µg/mL | MIC50 (Actinomyces viscosus): 0.25 µg/mL | MIC90 (Actinomyces viscosus): 2 µg/mL | MIC (Atopobium minutum): 0.25 µg/mL | MIC50 (Atopobium minutum): 0.25 µg/mL | MIC90 (Atopobium minutum): 2 µg/mL | MIC [6]: 0.25 µg/mL | MIC50 [6]: 0.25 µg/mL | MIC90 [6]: 2 µg/mL | MIC (Bifidobacterium breve): 0.25 µg/mL | MIC50 (Bifidobacterium breve): 0.25 µg/mL | MIC90 (Bifidobacterium breve): 2 µg/mL | MIC (Eggerthella lenta): 0.25 µg/mL | MIC50 (Eggerthella lenta): 0.25 µg/mL | MIC90 (Eggerthella lenta): 2 µg/mL | MIC (Eubacterium cylindroides): 0.25 µg/mL | MIC50 (Eubacterium cylindroides): 0.25 µg/mL | MIC90 (Eubacterium cylindroides): 2 µg/mL | MIC (Eubacterium limosum): 0.25 µg/mL | MIC50 (Eubacterium limosum): 0.25 µg/mL | MIC90 (Eubacterium limosum): 2 µg/mL | MIC [7]: 0.25 µg/mL | MIC50 [7]: 0.25 µg/mL | MIC90 [7]: 2 µg/mL | MIC (Parvimonas micra): 0.25 µg/mL | MIC50 (Parvimonas micra): 0.25 µg/mL | MIC90 (Parvimonas micra): 2 µg/mL
